± gives the expanded uncertainty stated by the source. Each block holds one molecule with its values, some of them ahead of it.
What was measured:
[1] = refractive index (Na D-line) (dimensionless); conditions: 303.15 K; 101.33 kPa; Liquid
[2] = 303.15 K; 101 kPa; Liquid
[3] = refractive index (Na D-line) (dimensionless); xn = mol fraction of the nth substance listed; conditions: 303.15 K, 101 kPa, Liquid
[4] = xn = mol fraction of the nth substance listed; conditions: 303.15 K, 101 kPa, Liquid

refractive index [1]: 1.4751 ± 0.0007 | mass density [2]: 1094.9 ± 1.3 kg/m3 | speed of sound [2]: 1490.9 ± 5 m/s
Compound: C[S+](C)[O-] [dimethyl sulfoxide]

refractive index [1]: 1.4134 ± 0.0008 | mass density [2]: 811.8 ± 1.8 kg/m3 | speed of sound [2]: 1282 ± 6.7 m/s
Compound: CCCCCCO [hexan-1-ol]

Compound: CCCCO [butan-1-ol] + C[S+](C)[O-]
refractive index ([3]; x2 = 0): 1.3946 ± 0.0007 | mass density ([4]; x2 = 0): 802 ± 0.8 kg/m3 | speed of sound ([4]; x2 = 0): 1231 ± 4.7 m/s

Compound: CCCCO [butan-1-ol]
refractive index [1]: 1.3946 ± 0.0007 | mass density [2]: 802 ± 0.8 kg/m3 | speed of sound [2]: 1231 ± 4.7 m/s

refractive index ([3]; x1 = 1): 1.4751 ± 0.0007 | mass density ([4]; x1 = 1): 1094.9 ± 2.4 kg/m3 | speed of sound ([4]; x1 = 1): 1490.9 ± 7 m/s
Compound: C[S+](C)[O-] [dimethyl sulfoxide] + CCCCCCO

refractive index ([3]; x2 = 0): 1.4134 ± 0.0008 | refractive index ([3]; x2 = 0.1336): 1.4149 ± 0.0008 | refractive index ([3]; x2 = 0.2712): 1.4185 ± 0.0008 | refractive index ([3]; x2 = 0.3808): 1.4216 ± 0.0008 | refractive index ([3]; x2 = 0.4814): 1.4259 ± 0.0008 | refractive index ([3]; x2 = 0.5762): 1.4311 ± 0.0008 | refractive index ([3]; x2 = 0.666): 1.4372 ± 0.0007 | refractive index ([3]; x2 = 0.765): 1.4448 ± 0.0007 | refractive index ([3]; x2 = 0.848): 1.4535 ± 0.0007 | refractive index ([3]; x2 = 0.9246): 1.4629 ± 0.0007 | mass density ([4]; x2 = 0): 811.8 ± 1.8 kg/m3 | speed of sound ([4]; x2 = 0): 1282 ± 6.7 m/s | mass density ([4]; x2 = 0.1336): 832.6 ± 1.8 kg/m3 | speed of sound ([4]; x2 = 0.1336): 1300.8 ± 6.7 m/s | mass density ([4]; x2 = 0.2712): 857.6 ± 1.9 kg/m3 | speed of sound ([4]; x2 = 0.2712): 1311.6 ± 6.7 m/s | mass density ([4]; x2 = 0.3808): 880.7 ± 1.9 kg/m3 | speed of sound ([4]; x2 = 0.3808): 1325.3 ± 6.7 m/s | mass density ([4]; x2 = 0.4814): 904.6 ± 1.9 kg/m3 | speed of sound ([4]; x2 = 0.4814): 1336.5 ± 6.7 m/s | mass density ([4]; x2 = 0.5762): 929.7 ± 2 kg/m3 | speed of sound ([4]; x2 = 0.5762): 1349.5 ± 6.7 m/s | mass density ([4]; x2 = 0.666): 956.3 ± 2 kg/m3 | speed of sound ([4]; x2 = 0.666): 1368 ± 6.8 m/s | mass density ([4]; x2 = 0.765): 989.2 ± 2.1 kg/m3 | speed of sound ([4]; x2 = 0.765): 1395 ± 6.8 m/s | mass density ([4]; x2 = 0.848): 1021.1 ± 2.2 kg/m3 | speed of sound ([4]; x2 = 0.848): 1420.5 ± 6.8 m/s | mass density ([4]; x2 = 0.9246): 1054.7 ± 2.3 kg/m3 | speed of sound ([4]; x2 = 0.9246): 1448.5 ± 6.9 m/s
Compound: CCCCCCO [hexan-1-ol] + C[S+](C)[O-]

refractive index [1]: 1.4201 ± 0.0007 | mass density [2]: 815.7 ± 0.9 kg/m3 | speed of sound [2]: 1306 ± 6.6 m/s
Compound: CCCCCCCO [heptan-1-ol]

refractive index ([3]; x2 = 0): 1.4201 ± 0.0007 | refractive index ([3]; x2 = 0.1096): 1.4209 ± 0.0007 | refractive index ([3]; x2 = 0.2535): 1.4242 ± 0.0007 | refractive index ([3]; x2 = 0.3668): 1.4277 ± 0.0007 | refractive index ([3]; x2 = 0.474): 1.4312 ± 0.0007 | refractive index ([3]; x2 = 0.5788): 1.4355 ± 0.0007 | refractive index ([3]; x2 = 0.6708): 1.4402 ± 0.0007 | refractive index ([3]; x2 = 0.7598): 1.4458 ± 0.0007 | refractive index ([3]; x2 = 0.8376): 1.4528 ± 0.0007 | refractive index ([3]; x2 = 0.9031): 1.4615 ± 0.0007 | mass density ([4]; x2 = 0): 815.7 ± 0.9 kg/m3 | speed of sound ([4]; x2 = 0): 1306 ± 6.6 m/s | mass density ([4]; x2 = 0.1096): 825.7 ± 0.9 kg/m3 | speed of sound ([4]; x2 = 0.1096): 1312.3 ± 6.6 m/s | mass density ([4]; x2 = 0.2535): 846 ± 0.9 kg/m3 | speed of sound ([4]; x2 = 0.2535): 1319.5 ± 6.6 m/s | mass density ([4]; x2 = 0.3668): 866.8 ± 1 kg/m3 | speed of sound ([4]; x2 = 0.3668): 1329.9 ± 6.6 m/s | mass density ([4]; x2 = 0.474): 889.4 ± 1 kg/m3 | speed of sound ([4]; x2 = 0.474): 1338 ± 6.6 m/s | mass density ([4]; x2 = 0.5788): 915.8 ± 1 kg/m3 | speed of sound ([4]; x2 = 0.5788): 1351.5 ± 6.7 m/s | mass density ([4]; x2 = 0.6708): 943.2 ± 1.1 kg/m3 | speed of sound ([4]; x2 = 0.6708): 1369 ± 6.7 m/s | mass density ([4]; x2 = 0.7598): 973.2 ± 1.1 kg/m3 | speed of sound ([4]; x2 = 0.7598): 1384.6 ± 6.7 m/s | mass density ([4]; x2 = 0.8376): 1003.5 ± 1.2 kg/m3 | speed of sound ([4]; x2 = 0.8376): 1409.3 ± 6.8 m/s | mass density ([4]; x2 = 0.9031): 1034.5 ± 1.2 kg/m3 | speed of sound ([4]; x2 = 0.9031): 1428.6 ± 6.8 m/s
Compound: CCCCCCCO [heptan-1-ol] + C[S+](C)[O-]

refractive index ([3]; x1 = 0.1034): 1.4001 ± 0.0007 | refractive index ([3]; x1 = 0.2122): 1.4064 ± 0.0007 | refractive index ([3]; x1 = 0.3156): 1.4127 ± 0.0007 | refractive index ([3]; x1 = 0.4009): 1.4185 ± 0.0007 | refractive index ([3]; x1 = 0.5073): 1.4263 ± 0.0007 | refractive index ([3]; x1 = 0.6002): 1.4335 ± 0.0007 | refractive index ([3]; x1 = 0.6957): 1.4417 ± 0.0007 | refractive index ([3]; x1 = 0.8112): 1.4527 ± 0.0007 | refractive index ([3]; x1 = 0.9051): 1.4633 ± 0.0007 | refractive index ([3]; x1 = 1): 1.4751 ± 0.0007 | mass density ([4]; x1 = 0.1034): 825.7 ± 0.8 kg/m3 | speed of sound ([4]; x1 = 0.1034): 1247.5 ± 4.7 m/s | mass density ([4]; x1 = 0.2122): 851.8 ± 0.9 kg/m3 | speed of sound ([4]; x1 = 0.2122): 1267.5 ± 4.8 m/s | mass density ([4]; x1 = 0.3156): 877.9 ± 0.9 kg/m3 | speed of sound ([4]; x1 = 0.3156): 1288 ± 4.8 m/s | mass density ([4]; x1 = 0.4009): 900.5 ± 1 kg/m3 | speed of sound ([4]; x1 = 0.4009): 1305.5 ± 4.8 m/s | mass density ([4]; x1 = 0.5073): 930.1 ± 1 kg/m3 | speed of sound ([4]; x1 = 0.5073): 1327.3 ± 4.8 m/s | mass density ([4]; x1 = 0.6002): 957.2 ± 1 kg/m3 | speed of sound ([4]; x1 = 0.6002): 1347.5 ± 4.8 m/s | mass density ([4]; x1 = 0.6957): 986.6 ± 1.1 kg/m3 | speed of sound ([4]; x1 = 0.6957): 1371 ± 4.9 m/s | mass density ([4]; x1 = 0.8112): 1024.6 ± 1.2 kg/m3 | speed of sound ([4]; x1 = 0.8112): 1406.6 ± 4.9 m/s | mass density ([4]; x1 = 0.9051): 1058.4 ± 1.2 kg/m3 | speed of sound ([4]; x1 = 0.9051): 1443 ± 5 m/s | mass density ([4]; x1 = 1): 1094.9 ± 1.3 kg/m3 | speed of sound ([4]; x1 = 1): 1490.9 ± 5 m/s
Compound: C[S+](C)[O-] [dimethyl sulfoxide] + CCCCO

refractive index ([3]; x1 = 1): 1.4751 ± 0.0007 | mass density ([4]; x1 = 1): 1094.9 ± 1.3 kg/m3 | speed of sound ([4]; x1 = 1): 1490.9 ± 7 m/s
Compound: C[S+](C)[O-] [dimethyl sulfoxide] + CCCCCCCO

Reference: the NIST ThermoML archive (doi:10.1007/s10765-005-8102-9)
